From patent US10471118B2, “Retinylamine derivitives for treatment of ocular disorders” (CASE WESTERN RESERVE UNIVERSITY, priority 2014, dated 2019) come the findings set out here.

Test [1] has as its target T1, RPE65 (Mus musculus, UniProt Q91ZQ5).
T1 sequence (Q91ZQ5 2-533 limits assumed): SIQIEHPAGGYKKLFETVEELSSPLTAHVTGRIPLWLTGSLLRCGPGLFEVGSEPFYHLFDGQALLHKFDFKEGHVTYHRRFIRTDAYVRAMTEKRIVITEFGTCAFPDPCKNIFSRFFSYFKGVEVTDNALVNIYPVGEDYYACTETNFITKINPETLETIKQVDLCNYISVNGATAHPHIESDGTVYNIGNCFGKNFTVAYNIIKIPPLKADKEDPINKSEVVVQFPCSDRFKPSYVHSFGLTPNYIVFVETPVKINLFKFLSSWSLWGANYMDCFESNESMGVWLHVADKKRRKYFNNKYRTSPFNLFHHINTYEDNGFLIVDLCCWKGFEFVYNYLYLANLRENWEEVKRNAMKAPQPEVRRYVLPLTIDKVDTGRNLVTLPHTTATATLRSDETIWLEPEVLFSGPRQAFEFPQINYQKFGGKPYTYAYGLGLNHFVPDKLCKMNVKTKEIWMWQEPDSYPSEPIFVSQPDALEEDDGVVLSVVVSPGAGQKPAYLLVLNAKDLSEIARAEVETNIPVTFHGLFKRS
In words: In vivo RPE65 inhibition: 11-cis-retinal regeneration after photo-bleach. Conditions: 1.75 μmol per mouse oral 16 h prior to photo-bleach (7000 lux, 10 min), 24 h dark. As to the method: The retinylamine derivatives (31 RVG and 3b RF) or Ret-NH2 were administered by oral gavage at same mole dose 1.75 μmol per mouse into dark-adapted C57BLwild-type female mice (n=3) at 16 h prior to photo-bleach. After photo-bleach (7000 lux, 10 min), mice were kept the dark room for 24 h to allow the visual cycle to recovery. Mice were then sacrificed and eyes were extracted for analysis. Mice without treatment prior to photo-bleach were set as control. Retinoid extraction was done by manually homogenizing eyes in 1 mL of 1:1 ethanol:PBS solution containing 40 mM hydroxylamine. Retinoids were extracted in 4 mL hexane, concentrated, and reconstituted to a volume of 200 μL. Normal-phase HPLC (Agilent-Zorbax SIL; 5 μm; 4.5×250 mm; flow rate of 1.4 mL/min; 90:10 hexane:ethyl acetate (v:v); detection at 325 nm) was utilized to analyze retinoid concentrations. In vivo RPE65 inhibition was analyzed by quantifying the amount of 11-cis-retinal within each eye.

Test [2] has as its target RPE65 (Bos taurus, UniProt Q28175). In words: Retinoid isomerase activity in RPE microsomes (11-cis-retinol production). Format: biochemical, Bovine. Conditions: 0.5 to 10 μM compound, 10 μM all-trans-retinol, 1 h. As to the method: To destroy endogenous retinoids, 200-μl aliquots of RPE microsomes placed in a quartz cuvette were irradiated for 5 min at 0° C. with a ChromatoUVE transilluminator (model TM-15; UVP).
All assays were performed under dim red light. 2 μl of the synthesized retinylamine derivatives (RF and RVG) (DMF, 0.5-10 mM) was added into 10 mM Bis-Tris propane buffer (pH 7.4) containing 150 μg RPE microsomes, 1% BSA, 1 mM disodium pyrophosphate and 20 μM apo Retinaldehyde-binding protein 1 (CRALBP). The resulting mixture was pre-incubated at room temperature for 5 min. Then 1 μl all-trans-retinol (DMF, 20 mM) was added. The resulting mixture was incubated at 37° C. for 1 h. Reaction was quenched by addition of 300 μl methanol, and the products were extracted with 300 μl hexanes. Production of 11-cis-retinol was quantified by normal phase HPLC with 10% (v/v) ethyl acetate in hexanes as eluent. Flow rate was 1.4 ml·min^−1 Retinoids were detected by monitoring absorbance at 325 nm and quantified base on a standard curve reflecting relation between amount of 11-cis-retinol and area under the corresponding chromatography peak.

Test [3] is described as follows: All-trans-retinal Schiff base formation. Conditions: 0.2 mM drug with all-trans-retinal in ethanol 2 h at room temperature. The protocol:
Incubate Ret-NH2 and retinylamine derivatives RVG, RF (0.2 mM) with all-trans-retinal (2 mM) in ethanol 2 h at room temperature, retinyl imines separated by reverse phase HPLC were identified on the basis of both their characteristic UV-vis spectra upon protonation and spectra obtained by mass spectrometry (MS). HPLC condition: analytical C18 reverse column; 5 μm; 250 mm×4.6 mm; flow rate of 0.5 mL/min; mobile phase acetonitrile:H2O (v:v) with 0.05% trifluoroacetic acid (0-15 min acetonitrile from 50% to 100%, 15-30 min 100% acetonitrile); detection at 325 nm.

Sequence of RPE65 (Bos taurus, UniProt Q28175) (Q28175 whole entry): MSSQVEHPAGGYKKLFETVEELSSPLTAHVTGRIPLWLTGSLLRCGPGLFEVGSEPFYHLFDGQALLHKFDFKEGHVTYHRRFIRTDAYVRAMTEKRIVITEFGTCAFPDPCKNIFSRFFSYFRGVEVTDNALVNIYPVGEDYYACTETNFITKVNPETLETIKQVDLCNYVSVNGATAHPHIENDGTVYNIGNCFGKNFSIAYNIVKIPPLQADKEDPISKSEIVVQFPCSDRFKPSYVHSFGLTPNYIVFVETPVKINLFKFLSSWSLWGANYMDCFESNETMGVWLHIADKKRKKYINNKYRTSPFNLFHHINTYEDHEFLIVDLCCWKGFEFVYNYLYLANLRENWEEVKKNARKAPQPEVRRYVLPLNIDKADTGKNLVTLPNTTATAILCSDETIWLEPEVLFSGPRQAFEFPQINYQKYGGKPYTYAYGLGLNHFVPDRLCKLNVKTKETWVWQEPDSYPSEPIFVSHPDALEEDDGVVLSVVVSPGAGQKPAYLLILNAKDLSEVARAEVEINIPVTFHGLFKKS

As to `CC1=C(/C=C/C(C)=C/C=C/C(C)=C/CNC(=O)[C@@H](NC(=O)CN)C(C)C)C(C)(C)CCC1` [RVG, (S)-2-(2-aminoacetamido)-N-((2E,4E,6E,8E)-3,7-dimethyl-9-(2,6,6-trimethylcyclohex-1-en-1-yl)nona-2,4,6,8-tetraen-1-yl)-3-methylbutanamide], the “regeneration of 11-cis-retinal in the eye” value (“regeneration” below) at RPE65 [1] was “faster regeneration of 11-cis-retinal in the eye, and weaker inhibition of retinoid cycle than Ret-NH2”. Further, at RPE65 [2], the “inhibition of RPE65 on 11-cis-retinol production” value (from here on “inhibition of RPE65”) is reported as “did not show significant inhibition”. For the same compound, the “Schiff base formation with atRAL” value in test [3] is given as “able to form Schiff base with atRAL”.
On to `CC1=C(/C=C/C(C)=C/C=C/C(C)=C/CN)C(C)(C)CCC1` [Ret-NH2, (2E,4E,6E,8E)-3,7-dimethyl-9-(2,6,6-trimethylcyclohex-1-en-1-yl)nona-2,4,6,8-tetraen-1-amine], for which the “regeneration” value at RPE65 [1] was “much lower concentration of 11-cis-retinal than the untreated controls”. Besides, the “inhibition of RPE65” value at RPE65 [2] is “concentration dependent inhibition of RPE65”. In addition, the “Schiff base formation with atRAL” value in test [3] is listed as “able to form Schiff base with atRAL”.
Turning to `CC1=C(/C=C/C(C)=C/C=C/C(C)=C/CNC(=O)[C@@H](N)Cc2ccccc2)C(C)(C)CCC1` [RF, (S)-2-amino-N-((2E,4E,6E,8E)-3,7-dimethyl-9-(2,6,6-trimethylcyclohex-1-en-1-yl)nona-2,4,6,8-tetraen-1-yl)-3-phenylpropanamide], the “regeneration” value at RPE65 [1] was “faster regeneration of 11-cis-retinal in the eye, and weaker inhibition of retinoid cycle than Ret-NH2”. Also, on RPE65 [2], the “inhibition of RPE65” value is recorded as “partial inhibition, but not in a concentration dependent manner”. Moreover, the “Schiff base formation with atRAL” value in test [3] is listed as “able to form Schiff base with atRAL”.
